Laboratory results taken from ChEMBL document CHEMBL4184276, “Curcumin inspired 2-chloro/phenoxy quinoline analogues: Synthesis and biological evaluation as potential anticancer agents” (Bioorg Med Chem Lett, 2018).
Activity calls are given as the source filed them. No cut-off for these calls is given here.

How the values were obtained:
PC-3 [1] = assay: Induction of apoptosis in human PC3 cells assessed as fragmentation of chromatin at 4 uM after 24 hrs by acridine orange/ethidium bromide staining based fluorescence microscopic method; format: functional, cell-based
DU-145 [2] = assay: Potency index, ratio of curcumin IC50 to compound IC50 for human DU145 cells; format: functional
PC-3 [3] = assay: Cell cycle arrest in human PC3 cells assessed as accumulation at sub-G1 phase at 2 uM after 24 hrs by propidium iodide staining based flow cytometry (reference value: 0.43%); format: functional
NCI-H460 [4] = assay: Potency index, ratio of curcumin IC50 to compound IC50 for human NCI-H460 cells; format: functional
PC-3 [5] = assay: Induction of apoptosis in human PC3 cells assessed as necrotic cells at 4 uM after 24 hrs by Annexin V-FITC/propidium iodide staining based flow cytometry (reference value: 0.28%); format: functional
PC-3 [6] = assay: Induction of apoptosis in human PC3 cells assessed as late apoptotic cells at 4 uM after 24 hrs by Annexin V-FITC/propidium iodide staining based flow cytometry (reference value: 7.8%); format: functional
NCI-H460 [7] = assay: Cytotoxicity against human NCI-H460 cells assessed as reduction in cell viability after 48 hrs by MTT assay; format: functional, cell-based; conditions: NCI-H460, 48 h
PC-3 [8] = assay: Induction of apoptosis in human PC3 cells assessed as non-uniform distribution of chromatin at 2 uM after 24 hrs by acridine orange/ethidium bromide staining based fluorescence microscopic method; format: functional, cell-based
PC-3 [9] = assay: Cell cycle arrest in human PC3 cells assessed as accumulation at G2/M phase at 4 uM after 24 hrs by propidium iodide staining based flow cytometry (reference value: 34.49%); format: functional
HGC-27 = assay: Cytotoxicity against human HGC27 cells assessed as reduction in cell viability after 48 hrs by MTT assay; format: functional, cell-based; conditions: HGC-27, 48 h
PC-3 [10] = assay: Induction of apoptosis in human PC3 cells assessed as condensed and pyknotic nuclei formation at 4 uM after 24 hrs by DAPI staining based fluorescence microscopic method; format: functional, cell-based
PC-3 [11] = assay: Cell cycle arrest in human PC3 cells assessed as accumulation at S phase at 2 uM after 24 hrs by propidium iodide staining based flow cytometry (reference value: 9.48%); format: functional
PC-3 [12] = assay: Induction of apoptosis in human PC3 cells assessed as early apoptotic cells at 4 uM after 24 hrs by Annexin V-FITC/propidium iodide staining based flow cytometry (reference value: 7.1%); format: functional
PC-3 [13] = assay: Cell cycle arrest in human PC3 cells assessed as accumulation at G2/M phase at 2 uM after 24 hrs by propidium iodide staining based flow cytometry (reference value: 34.49%); format: functional
PC-3 [14] = assay: Induction of apoptosis in human PC3 cells assessed as live cells at 2 uM after 24 hrs by Annexin V-FITC/propidium iodide staining based flow cytometry (reference value: 84.82%); format: functional
PC-3 [15] = assay: Cytotoxicity against human PC3 cells assessed as reduction in cell viability after 48 hrs by MTT assay; format: functional, cell-based; conditions: PC-3, 48 h
PC-3 [16] = assay: Induction of apoptosis in human PC3 cells assessed as early apoptotic cells at 2 uM after 24 hrs by Annexin V-FITC/propidium iodide staining based flow cytometry (reference value: 7.1%); format: functional
PC-3 [17] = assay: Induction of ROS generation in human PC3 cells at 1 to 2 uM after 24 hrs by DCFDA staining based flow cytometry; format: functional, cell-based
[18] = Aqueous solubility in milli-Q water at 2 mg incubated for 5 mins followed by sonication for 1 mins measured after 24 hrs by UV-Visible spectroscopic method; format: physicochemical
4T1 = assay: Cytotoxicity against mouse 4T1 cells assessed as reduction in cell viability after 48 hrs by MTT assay; format: functional, cell-based; conditions: 4T1, 48 h
PC-3 [19] = assay: Induction of apoptosis in human PC3 cells assessed as late apoptotic cells at 2 uM after 24 hrs by Annexin V-FITC/propidium iodide staining based flow cytometry (reference value: 7.8%); format: functional
PC-3 [20] = assay: Induction of apoptosis in human PC3 cells assessed as live cells at 4 uM after 24 hrs by Annexin V-FITC/propidium iodide staining based flow cytometry (reference value: 84.82%); format: functional
PC-3 [21] = assay: Cell cycle arrest in human PC3 cells assessed as accumulation at sub-G1 phase at 4 uM after 24 hrs by propidium iodide staining based flow cytometry (reference value: 0.43%); format: functional
PC-3 [22] = assay: Potency index, ratio of curcumin IC50 to compound IC50 for human PC3 cells; format: functional
PC-3 [23] = assay: Induction of apoptosis in human PC3 cells assessed as cell membrane blebbing at 1 uM after 24 hrs by acridine orange/ethidium bromide staining based fluorescence microscopic method; format: functional
PC-3 [24] = assay: Induction of apoptosis in human PC3 cells assessed as chromatin condensation at 1 uM after 24 hrs by acridine orange/ethidium bromide staining based fluorescence microscopic method; format: functional, cell-based
DU-145 [25] = assay: Cytotoxicity against human DU145 cells assessed as reduction in cell viability after 48 hrs by MTT assay; format: functional, cell-based; conditions: DU-145, 48 h
HeLa = assay: Cytotoxicity against human HeLa cells assessed as reduction in cell viability after 48 hrs by MTT assay; format: functional, cell-based
PC-3 [26] = assay: Cell cycle arrest in human PC3 cells assessed as accumulation at G0/G1 phase at 2 uM after 24 hrs by propidium iodide staining based flow cytometry (reference value: 55.61%); format: functional
PC-3 [27] = assay: Cell cycle arrest in human PC3 cells assessed as accumulation at G2/M phase after 24 hrs by propidium iodide staining based flow cytometry; format: functional
PC-3 [28] = assay: Induction of apoptosis in human PC3 cells assessed as necrotic cells at 2 uM after 24 hrs by Annexin V-FITC/propidium iodide staining based flow cytometry (reference value: 0.28%); format: functional
PC-3 [29] = assay: Cell cycle arrest in human PC3 cells assessed as accumulation at G0/G1 phase at 4 uM after 24 hrs by propidium iodide staining based flow cytometry (reference value: 55.61%); format: functional
PC-3 [30] = assay: Cell cycle arrest in human PC3 cells assessed as accumulation at S phase at 4 uM after 24 hrs by propidium iodide staining based flow cytometry (reference value: 9.48%); format: functional

With COc1cc(OC)c(OC)cc1/C=C/C(=O)/C=C/c1cc2ccccc2nc1Cl the Activity (PC-3 [1]) was “Active”, the “Ratio IC50” value (DU-145 [2]) was 8.3 and the Activity (PC-3 [3]) was 0.9%. For the same compound, the “Ratio IC50” value (NCI-H460 [4]) was 4.3, the Activity (PC-3 [5]) was 2.8% and the Activity (PC-3 [6]) was 29.17%. For the same compound, the IC50 (NCI-H460 [7]) was 3.96 µM, the Activity (PC-3 [8]) was “Active” and the Activity (PC-3 [9]) was 45.74%. For the same compound, the IC50 (HGC-27) was 8.73 µM, the Activity (PC-3 [10]) was “Active” and the Activity (PC-3 [11]) was 10.02%. For the same compound, the Activity (PC-3 [12]) was 7.97%, the Activity (PC-3 [13]) was 38.16% and the Activity (PC-3 [14]) was 73.21%. The IC50 (PC-3 [15]) was 3.12 µM, the Activity (PC-3 [16]) was 6.07% and the Activity (PC-3 [17]) was “Active”. For the same compound, the solubility [18] was “Soluble”, the IC50 (4T1) was 1.81 µM and the Activity (PC-3 [19]) was 18.51%. The Activity (PC-3 [20]) was 60.06%, the Activity (PC-3 [21]) was 0.6% and the “Ratio IC50” value (PC-3 [22]) was 6. The Activity (PC-3 [23]) was “Active”, the Activity (PC-3 [24]) was “Active” and the IC50 (DU-145 [25]) was 3.99 µM. The IC50 (HeLa) was 5.41 µM, the Activity (PC-3 [26]) was 50.4% and the Activity (PC-3 [27]) was “Dose-dependent effect”. It also gave an Activity (PC-3 [28]) of 2.21%, an Activity (PC-3 [29]) of 46.86% and an Activity (PC-3 [30]) of 6.86%.

Work on COc1cc(OC)c(/C=C/C(=O)/C=C/c2cc3ccccc3nc2Oc2ccc(Br)cc2)c(OC)c1 yielded an IC50 (NCI-H460 [7]) of over 10 µM, an IC50 (HGC-27) of over 10 µM and an IC50 (PC-3 [15]) of over 10 µM. For the same compound, the IC50 (4T1) was over 10 µM, the IC50 (DU-145 [25]) was over 10 µM and the IC50 (HeLa) was over 10 µM.

For COc1ccc(/C=C/C(=O)/C=C/c2cc3ccccc3nc2Cl)c(OC)c1, the IC50 (NCI-H460 [7]) was over 10 µM, the IC50 (HGC-27) was over 10 µM and the IC50 (PC-3 [15]) was over 10 µM. The IC50 (4T1) was over 10 µM, the IC50 (DU-145 [25]) was over 10 µM and the IC50 (HeLa) was over 10 µM.

COc1cc(OC)c(/C=C/C(=O)/C=C/c2cc3ccccc3nc2Oc2ccccc2C(C)C)c(OC)c1 showed an IC50 (NCI-H460 [7]) of over 10 µM, an IC50 (HGC-27) of over 10 µM and an IC50 (PC-3 [15]) of over 10 µM. The IC50 (4T1) was over 10 µM, the IC50 (DU-145 [25]) was over 10 µM and the IC50 (HeLa) was over 10 µM.

In the case of COc1cc(OC)c(OC)cc1/C=C/C(=O)/C=C/c1cc2ccccc2nc1Oc1ccccc1, the “Ratio IC50” value (DU-145 [2]) is reported as 3.6, the “Ratio IC50” value (NCI-H460 [4]) is reported as 2.1 and the IC50 (NCI-H460 [7]) is reported as 8.03 µM. The IC50 (HGC-27) was 10.5 µM, the IC50 (PC-3 [15]) was 7.29 µM and the solubility [18] was “Soluble”. For the same compound, the IC50 (4T1) was 7.63 µM, the “Ratio IC50” value (PC-3 [22]) was 2.6 and the IC50 (DU-145 [25]) was 9.22 µM. It also gave an IC50 (HeLa) of 12.2 µM.
